The numbers were not newly measured in US6998391B2, “Method for treating diseases associated with abnormal kinase activity” (SuperGen.Inc., priority 2002, dated 2006), which cites them from elsewhere.

Where a name gives a salt, the structure may show the parent alone. Read-outs that look alike come from different tables or passages of the source. Where no end group is shown, it is not given here.

One data set deals with tumor microvessels. Conditions: mouse, in vivo.
The target in the next data set is T1, JAK3 (Homo sapiens, UniProt P52333).
T1 sequence (P52333 1-1124): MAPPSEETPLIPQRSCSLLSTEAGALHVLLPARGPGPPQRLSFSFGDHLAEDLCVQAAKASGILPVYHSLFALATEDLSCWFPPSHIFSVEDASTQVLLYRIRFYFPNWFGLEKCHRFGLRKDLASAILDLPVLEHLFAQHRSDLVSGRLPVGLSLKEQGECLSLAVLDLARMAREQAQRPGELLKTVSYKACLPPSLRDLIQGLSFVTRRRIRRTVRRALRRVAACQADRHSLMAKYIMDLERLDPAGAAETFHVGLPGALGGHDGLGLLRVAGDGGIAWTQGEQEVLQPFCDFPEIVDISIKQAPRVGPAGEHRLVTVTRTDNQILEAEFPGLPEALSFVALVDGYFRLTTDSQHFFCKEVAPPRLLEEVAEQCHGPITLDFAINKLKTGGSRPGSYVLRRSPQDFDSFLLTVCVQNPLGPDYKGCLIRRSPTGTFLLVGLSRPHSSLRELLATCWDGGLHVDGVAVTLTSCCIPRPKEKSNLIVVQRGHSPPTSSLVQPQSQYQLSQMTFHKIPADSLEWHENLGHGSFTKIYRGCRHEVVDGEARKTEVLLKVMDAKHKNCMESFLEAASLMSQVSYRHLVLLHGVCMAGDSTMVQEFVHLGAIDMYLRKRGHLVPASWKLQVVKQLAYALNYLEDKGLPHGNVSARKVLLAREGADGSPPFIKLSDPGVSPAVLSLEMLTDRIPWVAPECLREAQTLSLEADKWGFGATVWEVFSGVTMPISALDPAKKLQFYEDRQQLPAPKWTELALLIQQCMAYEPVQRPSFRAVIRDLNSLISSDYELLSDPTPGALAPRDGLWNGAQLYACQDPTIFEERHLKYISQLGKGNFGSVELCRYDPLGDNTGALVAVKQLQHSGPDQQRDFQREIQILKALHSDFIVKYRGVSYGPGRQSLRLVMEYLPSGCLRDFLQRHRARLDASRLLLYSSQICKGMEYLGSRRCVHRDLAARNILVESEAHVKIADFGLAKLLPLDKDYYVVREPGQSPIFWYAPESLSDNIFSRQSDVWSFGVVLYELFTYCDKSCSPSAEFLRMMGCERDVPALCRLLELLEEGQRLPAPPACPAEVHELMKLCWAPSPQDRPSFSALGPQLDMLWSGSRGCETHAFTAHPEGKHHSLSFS
Conditions: dose-dependent fashion.

Data set [1] relates to erbB receptor tyrosine kinase family. Conditions: human cancer cell lines.
For data set [2], the system named is platelet-derived growth factor receptor, fibroblast growth factor receptor, and insulin receptor. Conditions: even at high concentrations.
The target in the next data set is T2, ZAP-70 (Homo sapiens, UniProt P43403).
T2 sequence (P43403 1-619): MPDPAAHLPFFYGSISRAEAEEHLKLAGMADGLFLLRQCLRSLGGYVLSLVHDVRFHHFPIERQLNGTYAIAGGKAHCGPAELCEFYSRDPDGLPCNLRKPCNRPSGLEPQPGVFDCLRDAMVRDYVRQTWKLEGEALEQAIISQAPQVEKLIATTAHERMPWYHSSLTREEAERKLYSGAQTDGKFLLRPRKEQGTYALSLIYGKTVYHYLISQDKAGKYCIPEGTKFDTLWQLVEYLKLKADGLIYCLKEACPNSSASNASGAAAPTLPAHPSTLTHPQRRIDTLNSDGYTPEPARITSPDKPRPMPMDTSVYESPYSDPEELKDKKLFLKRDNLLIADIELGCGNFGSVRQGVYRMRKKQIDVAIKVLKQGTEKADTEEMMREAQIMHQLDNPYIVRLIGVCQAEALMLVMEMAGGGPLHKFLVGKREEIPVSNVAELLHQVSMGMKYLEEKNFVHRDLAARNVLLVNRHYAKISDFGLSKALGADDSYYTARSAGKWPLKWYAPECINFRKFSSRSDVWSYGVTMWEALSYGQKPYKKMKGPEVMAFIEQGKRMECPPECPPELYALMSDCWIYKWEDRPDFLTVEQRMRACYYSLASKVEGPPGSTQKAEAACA

Data set [3] concerns the target Syk (Homo sapiens, UniProt P43405).
The target in the next data set is Lck (Homo sapiens, UniProt P06239).
Lck, sequence (P06239 whole entry, species assumed): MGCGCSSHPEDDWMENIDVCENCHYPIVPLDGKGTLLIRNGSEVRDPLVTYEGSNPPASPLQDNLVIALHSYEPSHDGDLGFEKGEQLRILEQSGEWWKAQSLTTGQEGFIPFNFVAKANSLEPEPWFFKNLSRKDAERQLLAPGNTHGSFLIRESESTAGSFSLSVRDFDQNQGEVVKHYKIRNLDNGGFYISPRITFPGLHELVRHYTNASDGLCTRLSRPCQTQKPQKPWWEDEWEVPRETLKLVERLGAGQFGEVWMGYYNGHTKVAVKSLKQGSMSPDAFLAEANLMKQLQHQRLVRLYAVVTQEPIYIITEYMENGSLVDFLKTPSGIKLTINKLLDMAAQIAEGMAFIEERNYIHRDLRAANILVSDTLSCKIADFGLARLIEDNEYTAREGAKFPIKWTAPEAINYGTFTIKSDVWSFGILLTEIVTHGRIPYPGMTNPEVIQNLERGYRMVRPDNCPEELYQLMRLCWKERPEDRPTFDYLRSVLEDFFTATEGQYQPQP
For data set [4], the system named is prostate cancer cells and osteoblasts. Conditions: various in vitro and in vivo models.
Data set [5] deals with Syk.
Another data set has as its system ERK1. Conditions: low doses.
[6] abbreviates: patients with chronic phase CML.

In the case of `Cc1[nH]c(/C=C2\C(=O)Nc3ccccc32)c(C)c1CCC(=O)O` [SU6668], in the data set on tumor microvessels, the “time to apoptosis in tumor microvessels after initiation of treatment” value was no more than 6 h and the “time to dose-dependent decreases in tumor microvessel density after first treatment” value was no more than 3 days.
Consider `COc1cc2ncnc(Nc3cc(Br)c(O)c(Br)c3)c2cc1OC` [WHI-P97, 4-(3′,5′-dibromo-4′-hydroxylphenyl)-amino-6,7-dimethoxyquinazoline], for which the JAK3 inhibition result on JAK3 was “inhibited JAK3”.
For the molecule `C=CC(=O)Nc1cc2c(Nc3ccc(F)c(Cl)c3)ncnc2cc1OCCCN1CCOCC1` [CI-1033], the “inhibition of tyrosine kinase activity” value in data set [1] was “prompt, potent, and sustained inhibition”. Moreover, in [2], the “inhibition of tyrosine kinase activity of other receptors” value is listed as “without inhibiting”.
As for KLILFLLL, the “inhibition of ZAP-70” value with ZAP-70 is reported as “competitive inhibitor”. In the data set with Syk [3], the “inhibition of Syk” value was “poor inhibitor”. Also, the “inhibition of Lck” value in the data set with Lck is reported as “poor inhibitor”.
`C[C@]12O[C@H](C[C@]1(O)CO)n1c3ccccc3c3c4c(c5c6ccccc6n2c5c31)CNC4=O` [CEP-701]: in [4], the “apoptosis of prostate cancer cells and osteoblasts” value was “selectively induce apoptosis”.
With `Cc1ccc2c(=O)c3ccccc3n(CCCN)c2c1C.O=C(O)C(=O)O` [ER-27319, 3,4-dimethyl-10-(3-aminopropyl)-9-acridone oxalate], the “FceRI-mediated degranulation, tyrosine phosphorylation of Syk” value in the data set on Syk [5] (intact mast cells, not Lyn) is “inhibits”.
For `CO[C@]1(CO)C[C@H]2O[C@]1(C)n1c3ccccc3c3c4c(c5c6ccccc6n2c5c31)C(=O)NC4` [CEP-75 1], in data set [4], the “apoptosis of prostate cancer cells and osteoblasts” value is “selectively induce apoptosis”.
`Cc1ccc(NC(=O)c2ccc(CN3CCN(C)CC3)cc2)cc1Nc1nccc(-c2cccnc2)n1` [Imatinib mesylate]: the complete cytogenetic response is given as 14% with CML patients (accelerated phase CML), 5% in the data set on CML patients (blast phase CML) and 30% with CML patients (chronic phase CML). Besides, the “complete cytogenetic response maintained for four weeks” value in the data set with CML patients (accelerated phase CML) is listed as 4%; in the data set with CML patients (blast phase CML) it was 1%; in the data set with CML patients (chronic phase CML), 16%. Besides, the remissions in the data set with CML patients (accelerated phase CML patients) was 63%; in the data set on CML patients (blast phase patients), 26%. Besides, the complete hematologic response in the data set with CML patients (setting [6]) is 88%. Besides, the major cytogenetic response with CML patients (setting [6]) is reported as 49%.
As for `N#CC(=C(/N)Sc1ccccc1N)/C(C#N)=C(\N)Sc1ccccc1N` [U0126], the “cyclin D1 expression and cell proliferation” value with ERK1/2 pathway was “prevented cyclin D1 expression and inhibits cell proliferation”. Besides, the ERK5/BMK1 pathway inhibition result in the data set with ERK5 is given as “inhibited”.
Consider `Oc1cc(O)cc(/C=C/c2ccc(O)c(O)c2)c1` [Piceatannol, 3,4,3′,5′-tetrahydroxy-trans-stilbene], for which the “FceRI-mediated IP3 production, serotonin secretion, membrane ruffling and cell spreading” value in the data set on Syk [5] (by inhibiting Syk) was “inhibits”.
For the molecule `COc1cccc(-c2cc(=O)c3ccccc3o2)c1N` [PD98059], the “cyclin D1 expression and cell proliferation” value in the data set on ERK1/2 pathway is “prevented cyclin D1 expression and inhibits cell proliferation”. The ERK5/BMK1 pathway inhibition entry with ERK5 is “inhibited”.
Turning to `O=C(NOCC1CC1)c1ccc(F)c(F)c1Nc1ccc(I)cc1Cl` [PD184352], the ERK1 activity entry with ERK1 is recorded as “abolished”. For the same molecule, in the data set on ERK5 (low doses), the “effect on ERK5” value is reported as “no effect”.
`COc1cc2ncnc(Nc3ccc(O)c(Br)c3)c2cc1OC` [WHI-P 154, 4-(3′-bromo-4′-hydroxylphenyl)-amino-6,7-dimethoxyquinazoline]: the JAK3 inhibition result on JAK3 was “inhibited JAK3”.
